According to publication PMC6667231 (International journal of nutrition, 2019):

Each compound was assayed against T1, CDK4/Cyclin D1 (Homo sapiens, UniProt P11802) (assay: cell-free […]-ATP kinase assay, P81 phosphocellulose plate). Conditions: not given.
T1 sequence (P11802 2-303): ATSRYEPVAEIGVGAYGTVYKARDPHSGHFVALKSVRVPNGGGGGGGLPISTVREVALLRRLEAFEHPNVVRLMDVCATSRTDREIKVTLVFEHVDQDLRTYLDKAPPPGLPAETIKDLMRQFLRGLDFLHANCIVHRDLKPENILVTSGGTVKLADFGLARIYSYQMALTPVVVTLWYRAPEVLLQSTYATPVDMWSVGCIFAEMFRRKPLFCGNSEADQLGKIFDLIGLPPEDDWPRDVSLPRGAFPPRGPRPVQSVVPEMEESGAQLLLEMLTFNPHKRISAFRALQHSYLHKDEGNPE
T1 sequence (P24385 whole entry partner): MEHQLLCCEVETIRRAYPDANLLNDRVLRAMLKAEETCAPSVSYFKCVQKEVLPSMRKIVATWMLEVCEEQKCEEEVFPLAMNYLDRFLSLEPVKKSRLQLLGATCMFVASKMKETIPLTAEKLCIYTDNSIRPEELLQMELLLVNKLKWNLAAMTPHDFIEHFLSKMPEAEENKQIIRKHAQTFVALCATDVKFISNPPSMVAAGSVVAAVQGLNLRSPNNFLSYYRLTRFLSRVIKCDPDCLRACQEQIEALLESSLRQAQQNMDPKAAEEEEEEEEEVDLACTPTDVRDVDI
Format: biochemical
With `COc1c(O)cc2oc3cc4c(c(O)c3c(=O)c2c1CC=C(C)C)CCC(C)(C)O4` [3-isomangostin] the IC50 was 15.6 µM. With `COc1c(O)cc2oc3cc(O)c(CC=C(C)C)c(O)c3c(=O)c2c1CCC(C)(C)O` [garcinone D] the IC50 was 12.8 µM. `COc1c(O)cc2oc3cc(O)c(CC=C(C)C)c(O)c3c(=O)c2c1CC=C(C)C` [α-mangostin] showed an IC50 of 8.5 µM. Work on `CC(C)=CCc1c(O)cc2oc3cc(O)c(O)c(CC=C(C)C)c3c(=O)c2c1O` [γ-mangostin] yielded an IC50 of 6.2 µM.

Each compound was assayed against T1, CDK4/Cyclin D1 in the same assay as above. Conditions: read-out: 40 μM.
Format: biochemical
`CC(C)=CCc1c(O)c(CC=C(C)C)c2oc3c(O)cccc3c(=O)c2c1O` [8-desoxygartanin] was tested, and the activity at 40 µM was 81.4 ± 6.38%. Work on `CC(C)=CCc1c(O)cc2oc3cc(O)c(O)c(CCC(C)(C)O)c3c(=O)c2c1O` [garcinone C] yielded an activity at 40 µM of 65.7 ± 7.94%. `CC(C)=CCc1c(O)c(CC=C(C)C)c2oc3c(O)ccc(O)c3c(=O)c2c1O` [gartanin] showed an activity at 40 µM of 80.2 ± 10.2%. Work on `COc1cc2oc3cc(O)c(OC)c(CC=C(C)C)c3c(=O)c2c(O)c1CC=C(C)C` [β-mangostin] yielded an activity at 40 µM of 55 ± 2.88%.
